Reference: patent publication US20250221979A1, “NOVEL HETEROCYCLIC COMPOUND” (SHOUYAO HOLDINGS (BEIJING) CO., LTD., priority 2022, published 2025)
pIC50: −log10 of the molar value.

Molecular target: human MAT2A enzyme (Homo sapiens (Human), UniProt P31153)
Assay: In vitro enzymatic inhibition activity assay on MAT2A (PiColorLock phosphate detection)
Type: biochemical
Details: purified human MAT2A 10 nM, ATP 50 μM, L-methionine 100 μM, 6 h at 23° C.; read-out: MAT2A inhibitory activity IC50
Procedure, shortened: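 IC50 came from an 8-point, 10-fold compound series that reduced phosphate release, measured by absorbance at 630 nm. Reactions ran 6 h at 23 °C with 10 nM human MAT2A, 50 μM ATP and 100 μM L-methionine in pH 7.5 Tris buffer containing Mg2+.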

human MAT2A enzyme, sequence (P31153 whole entry): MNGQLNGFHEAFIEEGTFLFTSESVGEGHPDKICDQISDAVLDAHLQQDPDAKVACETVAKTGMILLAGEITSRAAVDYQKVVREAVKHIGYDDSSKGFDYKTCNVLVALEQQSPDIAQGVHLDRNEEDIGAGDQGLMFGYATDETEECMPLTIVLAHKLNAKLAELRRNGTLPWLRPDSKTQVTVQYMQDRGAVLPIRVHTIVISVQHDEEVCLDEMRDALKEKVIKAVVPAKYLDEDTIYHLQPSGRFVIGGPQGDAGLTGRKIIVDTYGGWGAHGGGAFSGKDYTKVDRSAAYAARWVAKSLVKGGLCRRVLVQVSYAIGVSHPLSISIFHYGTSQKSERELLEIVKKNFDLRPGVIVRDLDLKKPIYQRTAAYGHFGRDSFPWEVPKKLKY

SMILES	pIC50
COC(=O)c1c(N)c2ccc(C(F)(F)F)cc2n(-c2ccc(C(C)O)cc2C)c1=O (centres unmarked) [Example 269, methyl 4-amino-1-(4-(1-hydroxyethyl)-2-methylphenyl)-2-oxo-7-(trifluoromethyl)-1,2-dihydroquinoline-3-carboxylate]	8.23
COC(=O)c1c(N)c2ccc(C(F)(F)F)cc2n(-c2ccc([C@H](C)O)cc2)c1=O [Example 271, methyl 4-amino-1-(4-(1-(S)-hydroxyethyl)phenyl)-2-oxo-7-(trifluoromethyl)-1,2-dihydroquinoline-3-carboxylate]	8.74
COC(=O)c1c(N)c2ccc(C(F)(F)F)nc2n(-c2ccc(N)cc2C)c1=O [Example 282, methyl 4-amino-1-(4-amino-2-methylphenyl)-2-oxo-7-(trifluoromethyl)-1,2-dihydro-1,8-naphthyridine-3-carboxylate]	8.66
COC(=O)c1c(N)c2ccc(Br)cc2n(-c2cccc(N)c2)c1=O [Example 284, methyl 4-amino-1-(3-aminophenyl)-7-bromo-2-oxo-1,2-dihydroquinoline-3-carboxylate]	8.61
COC(=O)c1c(N)c2ccc(Br)cc2n(-c2ccc(C(C)O)nc2)c1=O (centres unmarked) [Example 291, methyl 4-amino-1-(6-(1-hydroxyethyl)pyridin-3-yl)-2-oxo-7-bromo-1,2-dihydroquinoline-3-carboxylate]	8.66
COC(=O)c1c(N)c2ccc(Br)nc2n(-c2cnc(Cl)cc2C)c1=O [Example 296, methyl 4-amino-7-bromo-1-(6-chloro-4-methylpyridin-3-yl)-2-oxo-1,2-dihydro-1,8-naphthyridine-3-carboxylate]	8.70
COC(=O)c1c(N)c2ccc(Br)nc2n(-c2ccc(Cl)nc2)c1=O [Example 297, methyl 4-amino-7-bromo-1-(6-chloropyridin-3-yl)-2-oxo-1,2-dihydro-1,8-naphthyridine-3-carboxylate]	8.69
COC(=O)c1c(N)c2ccc(Br)nc2n(-c2ccc(N)cc2C)c1=O [Example 304, methyl 4-amino-1-(4-amino-2-methylphenyl)-7-bromo-2-oxo-1,2-dihydro-1,8-naphthyridine-3-carboxylate]	8.64
COC(=O)c1c(N)c2ccc(C(F)(F)F)nc2n(-c2ccc(N)nc2C)c1=O [Example 308, methyl 4-amino-1-(6-amino-2-methylpyridin-3-yl)-2-oxo-7-(trifluoromethyl)-1,2-dihydro-1,8-naphthyridine-3-carboxylate]	8.62
COC(=O)c1c(N)c2ccc(C(F)(F)F)nc2n(-c2ccc3nccn3c2)c1=O [Example 309, methyl 4-amino-1-(imidazo[3,2-a]pyridin-6-yl)-2-oxo-7-(trifluoromethyl)-1,2-dihydro-1,8-naphthyridine-3-carboxylate]	8.69
COC(=O)c1c(N)c2ccc(C(F)(F)F)nc2n(-c2cccc3c(Cl)nccc23)c1=O [Example 318, methyl 4-amino-1-(1-chloroisoquinolin-5-yl)-2-oxo-7-(trifluoromethyl)-1,2-dihydro-1,8-naphthyridine-3-carboxylate]	8.63
COC(=O)c1c(N)c2ccc(Cl)cc2n(-c2ccc(N)cc2)c1=O [Example 322, methyl 4-amino-7-chloro-1-(4-aminophenyl)-2-oxo-1,2-dihydroquinoline-3-carboxylate]	8.74
COC(=O)c1c(N)c2ccc(C3CC3)cc2n(-c2ccc(C(C)O)cc2)c1=O (centres unmarked) [Example 328, methyl 4-amino-1-(4-(1-hydroxyethyl)phenyl)-2-oxo-7-cyclopropyl-1,2-dihydroquinoline-3-carboxylate]	8.59
COC(=O)c1c(N)c2ccc(C)cc2n(-c2ccc(C(C)O)cc2)c1=O (centres unmarked) [Example 329, methyl 4-amino-1-(4-(1-hydroxyethyl)phenyl)-2-oxo-7-methyl-1,2-dihydroquinoline-3-carboxylate]	8.58
[2H]C([2H])([2H])OC(=O)c1c(N)c2ccc(C(F)(F)F)cc2n(-c2ccc(C(C)O)cc2)c1=O (centres unmarked) [Example 331, methyl-d3 4-amino-1-(4-(1-hydroxyethyl)phenyl)-2-oxo-7-(trifluoromethyl)-1,2-dihydroquinolin-3-carboxylate]	8.60
COC(=O)c1c(N)c2ccc(Br)nc2n(-c2ccc(C(C)O)nc2)c1=O (centres unmarked) [Example 332, methyl 4-amino-7-bromo-1-(6-(1-hydroxyethyl)pyridin-3-yl)-2-oxo-1,2-dihydro-1,8-naphthyridine-3-carboxylate]	8.64
COC(=O)c1c(N)c2ccc(OC(F)F)cc2n(-c2ccc(C(C)O)cc2)c1=O (centres unmarked) [Example 335, methyl 4-amino-7-(difluoromethoxy)-1-(4-(1-hydroxyethyl)phenyl)-2-oxo-1,2-dihydroquinoline-3-carboxylate]	8.69

These reach a higher pIC50. Values come first.

pIC50	SMILES
9.04	COC(=O)c1c(N)c2ccc(C(F)(F)F)cc2n(-c2ccc(N)cc2)c1=O [Example 273, methyl 4-amino-1-(4-aminophenyl)-2-oxo-7-(trifluoromethyl)-1,2-dihydroquinoline-3-carboxylate]
9.28	COC(=O)c1c(N)c2ccc(C(F)(F)F)nc2n(-c2ccc(N)cc2)c1=O [Example 274, methyl 4-amino-1-(4-aminophenyl)-2-oxo-7-(trifluoromethyl)-1,2-dihydro-1,8-naphthyridine-3-carboxylate]
9.82	COC(=O)c1c(N)c2ccc(Br)nc2n(-c2ccc(I)cc2)c1=O [Example 275, methyl 4-amino-7-bromo-1-(4-iodophenyl)-2-oxo-1,2-dihydro-1,8-naphthyridine-3-carboxylate]
8.76	COC(=O)c1c(N)c2ccc(Br)nc2n(-c2cnc(N)cc2C)c1=O [Example 280, methyl 4-amino-1-(6-amino-4-methylpyridin-3-yl)-7-bromo-2-oxo-1,2-dihydro-1,8-naphthyridine-3-carboxylate]
9.15	COC(=O)c1c(N)c2ccc(C(F)(F)F)nc2n(-c2ccc3ccncc3c2)c1=O [Example 283, methyl 4-amino-1-(isoquinolin-7-yl)-2-oxo-7-(trifluoromethyl)-1,2-dihydro-1,8-naphthyridine-3-carboxylate]
8.84	COC(=O)c1c(N)c2ccc(Br)nc2n(-c2ccc(Cl)cc2C)c1=O [Example 287, methyl 4-amino-7-bromo-1-(4-chloro-2-methylphenyl)-2-oxo-1,2-dihydro-1,8-naphthyridine-3-carboxylate]
8.98	COC(=O)c1c(N)c2ccc(Br)nc2n(-c2ccc(Cl)c3cnccc23)c1=O [Example 289, methyl 4-amino-1-(8-chloroisoquinolin-5-yl)-7-bromo-2-oxo-1,2-dihydro-1,8-naphthyridine-3-carboxylate]
9.10	COC(=O)c1c(N)c2ccc(Br)nc2n(-c2cccc3c(C)nccc23)c1=O [Example 290, methyl 4-amino-1-(1-methylisoquinolin-5-yl)-7-bromo-2-oxo-1,2-dihydro-1,8-naphthyridine-3-carboxylate]
8.97	COC(=O)c1c(N)c2ccc(I)cc2n(-c2ccc(C)nc2C)c1=O [Example 294, methyl 4-amino-1-(2,6-dimethylpyridin-3-yl)-2-oxo-7-iodo-1,2-dihydroquinoline-3-carboxylate]
9.05	COC(=O)c1c(N)c2ccc(Br)nc2n(-c2ccc(N)cc2Cl)c1=O [Example 295, methyl 4-amino-1-(4-amino-2-chlorophenyl)-2-oxo-7-bromo-1,2-dihydro-1,8-naphthyridine-3-carboxylate]
9.37	COC(=O)c1c(N)c2ccc(I)cc2n(-c2ccc(C(C)O)cc2)c1=O (centres unmarked) [Example 298, methyl 4-amino-1-(4-(1-hydroxyethyl)phenyl)-2-oxo-7-iodo-1,2-dihydroquinoline-3-carboxylate]
9.04	COC(=O)c1c(N)c2ccc(C(F)(F)F)nc2n(-c2ccc(C(C)O)cc2)c1=O (centres unmarked) [Example 303, methyl 4-amino-1-(4-(1-hydroxyethyl)phenyl)-2-oxo-7-(trifluoromethyl)-1,2-dihydro-1,8-naphthyridine-3-carboxylate]
8.94	COC(=O)c1c(N)c2ccc(I)cc2n(-c2ccc(C(C)O)nc2)c1=O (centres unmarked) [Example 307, methyl 4-amino-1-(6-(1-hydroxyethyl)pyridin-3-yl)-2-oxo-7-iodo-1,2-dihydroquinoline-3-carboxylate]
9.13	[2H]C([2H])([2H])OC(=O)c1c(N)c2ccc(C(F)(F)F)nc2n(-c2ccc(C(C)O)cc2)c1=O (centres unmarked) [Example 310, methyl-d3 4-amino-1-(4-(1-hydroxyethyl)phenyl)-2-oxo-7-(trifluoromethyl)-1,2-dihydro-1,8-naphthyridine-3-carboxylate]
9.22	[2H]C([2H])([2H])OC(=O)c1c(N)c2ccc(Br)cc2n(-c2ccc(C(C)O)cc2)c1=O (centres unmarked) [Example 311, methyl-d3 4-amino-7-bromo-1-(4-(1-hydroxyethyl)phenyl)-2-oxo-1,2-dihydroquinoline-3-carboxylate]
8.92	COC(=O)c1c(N)c2ccc(C(F)(F)F)nc2n(-c2cccc3c(C)nccc23)c1=O [Example 319, methyl 4-amino-1-(1-methylisoquinolin-5-yl)-2-oxo-7-(trifluoromethyl)-1,2-dihydro-1,8-naphthyridine-3-carboxylate]
8.90	COC(=O)c1c(N)c2ccc(C(F)F)cc2n(-c2ccc(N)cc2)c1=O [Example 327, methyl 4-amino-1-(4-aminophenyl)-2-oxo-7-(difluoromethyl)-1,2-dihydro quinoline-3-carboxylate]
9.04	CCOC(=O)c1c(N)c2ccc(C(F)(F)F)cc2n(-c2ccc([C@@H](C)O)cc2)c1=O [Example 330, ethyl 4-amino-1-(4-(1-(R)-hydroxyethyl)phenyl)-2-oxo-7-(trifluoromethyl)-1,2-dihydroquinoline-3-carboxylate]
